Literature values, collected in patent US20200206183A1, “SYSTEMS, METHODS, AND FORMULATIONS FOR TREATING CANCER” (Research Cancer Institute of America, priority 2011, published 2020).

Tests used:
[1] = test system: patients who had cancer deemed no longer treatable by conventional methods
tyrosine kinase = settings: measured in 11 subjects

Dose concluded for further study ([1]; intravenous) | Subjects with a decrease in tyrosine kinase levels (tyrosine kinase) | Molecule | Suppression as defined by the radiological criteria of WHO ([1]; up to 1700 mg/m2 intravenous for about 3 weeks, 50 patients) | Patients with sustained decreases in unique cancer markers ([1]; up to 1700 mg/m2 intravenous, 50 patients) | Toxicity (patients; oral doses up to 36 grams per day) | Patients with stable disease (patients; stable disease for more than 6 months while on the drug, one study)
≤ 1400 mg/m2 | 9 subjects | O=c1c(O)c(-c2ccc(O)c(O)c2)oc2cc(O)cc(O)c12 [quercetin] | None of the patients achieved suppression | two showed sustained decreases | – | –
– | – | sodium phenylbutyrate [SPB] | – | – | minimal toxicity | 25%
